According to US3959283A, “Amino-derivatives of 1,4-benzodioxan” (Laboratoire L. Lafon, priority 1974, dated 1976):
Structures can show the parent of a compound that is named as a salt.

Key:
dogs [1] = experiment: Cardiovascular properties of the product of Example 3 in dogs; format: in vivo
Protocol: (§2) Arterial pressure (abbreviated to AP): this parameter, expressed in mm Hg) is evaluated in accordance with the usual conditions.
When administered intravenously to dogs at doses ranging from 1 mg to 13 mg/kg, the following results are observed:

adrenergic receptors [2] = experiment: Reversal of hypertensive effect of adrenalin (α-blocking), product of Example 3; format: in vivo, dogs
man [3] = experiment: Administration to man in vascular complaints (product of Example 3); format: in vivo; settings: tablets containing 20 mg, 2 to 3 per day
femoral artery = experiment: Vasodilating properties, injection into the femoral artery; format: in vivo, dogs
Protocol: On injection into the femoral artery, no effect is observed at doses of less than 100 μg/kg. […] At these doses, no effect is observed on the arterial pressure AP measured in accordance with the usual conditions.

adrenergic receptors [4] = experiment: Oral α-blocking activity in dogs (hypertensive effects of adrenalin); format: in vivo; settings: orally
man [5] = experiment: Clinical studies in man, tablets or injectable ampoules (product of Example 2); format: in vivo; settings: tablets (50 mg) or injectable ampoules (10 mg)
Text: In clinical studies, good results were obtained in man by administering tablets such as: […]

dogs [6] = experiment: Coronary flow rate and haemodynamics in anaesthetised dogs, intravenous perfusion; format: in vivo
Protocol: (§3) During the series of pharmacological tests, the following parameters were used:
as §2
Arterial resistance: this parameter (expressed in dynes/sec./cm^^-5) is calculated according to the ratio [formula]
Cardiac index: this parameter is expressed in ml/min./kg.
Systolic index: this parameter is equal to the ratio cardiac index/frequency.
Cardiac work: this parameter (expressed in kgm/min.) is calculated according to the relationship: Cardiac work = average AP (mm Hg) × 1.36 = cardiac output (1/min.) × 10^^-3.
Ratio dp/dt: this parameter corresponds to the variation in pressure expressed in mm Hg per second (in English: Rate of rise of left ventricular pressure).
The technique used to measure the ratio dp/dt is as follows:
The cardiac output is determined in Beagle dogs weighing 10 to 15 kg, anesthetised with pentobarbital, by injecting Cardiogreen (1 mg in 0.5 ml) into the right ventricle. A catheter introduced via the carotid artery into the aorta makes it possible to aspirate arterial blood at the rate of 25 ml/min. and to pass it in front of the photoelectric cell of a Beckman cardiodensitometer. The results are interpreted in accordance with the Hamilton method.

[7] = system: vertebral, femoral and mesenteric arteries; experiment: Vasodilating properties, intravenous administration, arterial flow rates; format: in vivo, dogs; settings: for increase in vertebral flow rate: 0.25 mg/kg perfused i.v.
Protocol: When administered intravenously, the following results were observed:
A third test is carried out by injecting, without stopping, 0.5, 1, 2 and 4 mg/kg, that is to say a total of 7.5 mg/kg.

adrenergic receptors [8] = experiment: Effect on responses to adrenalin, acetylcholine, isoprenalin and vagus stimulation (product of Example 2); format: in vivo, dogs
vertebral artery = experiment: Vasodilating properties, injection into the vertebral artery; format: in vivo, dogs
Protocol: On injection into the vertebral artery, no effect is observed at doses of less than 1 mg/kg. At a dose of 10 mg/kg, the flow rate increases by 37% and at a dose of 20 mg/kg it only increases by 27%. At these two doses, the arterial pressure decreases respectively by 14 and 28% although no effect had been observed during the injection into the femoral artery.

adrenergic receptors [9] = experiment: Reversal of hypertensive effect of adrenalin (α-blocking), product of Example 8; format: in vivo; settings: dogs
dogs [10] = experiment: Intravenous perfusion in dogs anaesthetised with Nembutal (product of Example 8); format: in vivo; settings: 2.5 mg/kg i.v. over 5 minutes
Protocol: as §3, §2
The product of Example 8 was perfused intravenously over the course of 5 minutes at doses of 2.5 and 5 mg/kg.

[11] = system: femoral and vertebral arteries; experiment: Oral administration, arterial flow rates (product of Example 8); format: in vivo, dogs; settings: orally
[12] = Acute intravenous toxicity in mice, products of Examples 10 to 13 (LD50); settings: mouse, in vivo, i.v., group consisting solely of female mice
Text: (a) determined on a group of male and female mice,
(b) determined on a group consisting solely of female mice.

DMPP = experiment: Effect on the amines and reflexes: DMPP; settings: in vivo
Text: (§1) In Table III below, the effects of the products on the amines and the reflexes have been summarised.

adrenalin = experiment: Effect on the amines and reflexes: adrenalin; settings: in vivo
Text: as §1

adrenergic receptors [13] = experiment: Inhibition/reversal of tension effects of adrenalin, intravenous (products of Examples 11 to 13); format: in vivo; settings: i.v.
Protocol: the doses of CRL 40,150 from 0.5 to 4 mg/kg being administered successively.

acetylcholine = experiment: Effect on the amines and reflexes: acetylcholine; settings: in vivo
Text: as §1

peripheral vagus = experiment: Effect on the amines and reflexes: stimulation of the peripheral vagus; settings: in vivo
Text: as §1

central vagus = experiment: Effect on the amines and reflexes: stimulation of the central vagus; settings: in vivo
Text: as §1

adrenergic receptors [14] = experiment: α-blocking activity, parenteral (LL 1756); format: in vivo
[15] = another test, 2 mg/kg at the very start

Compound: OCC(O)CN1CCN(CC2COc3ccccc3O2)CC1 (stereo not drawn) [Example 3, 1-[2-(1,4-Benzodioxanyl)-methyl]-4-(2,3-dihydroxypropyl)-piperazine dihydrochloride]
- effect on the AP (dogs [1]; i.v., 1 mg to 13 mg/kg): little effect on the AP or a slight hypotension
- vertebral flow rate (dogs [1]; i.v., 1 mg to 13 mg/kg): no effect
- cardiovascular variations after intraduodenal administration (dogs [1]; intraduodenal, 10 and 50 mg/kg): the variations described after intravenous injection are found again
- α-blocking action (conclusion) (adrenergic receptors [2]; conclusion): α-blocking agent
- hypertensive effect of adrenalin (adrenergic receptors [2]; intraduodenal, 10 mg/kg): reversal of the hypertensive effect of adrenalin
- result in vascular complaints (man [3]): good results in vascular complaints

Compound: OCCN1CCN(CC2COc3ccccc3O2)CC1 (stereo not drawn) [Example 2, 1-[2-(1,4-Benzodioxanyl)-methyl]-4-(2-hydroxyethyl)-piperazine hemifumarate]
- effect on arterial pressure AP (femoral artery; injection into femoral artery, 1, 10 and 20 mg/kg): no effect
- effect on flow rate of the femoral artery (femoral artery; injection into femoral artery, doses less than 100 μg/kg): no effect
- hypertensive effects of adrenalin (adrenergic receptors [4]; 5 mg/kg): decreases the said effects
- hypertensive effects of adrenalin (adrenergic receptors [4]; 7 mg/kg): inhibits them strongly
- α + effect of adrenalin (adrenergic receptors [4]; 10 mg/kg): overcomes the α + effect of adrenalin
- clinical result (man [5]): good results
- increase in coronary flow rate (dogs [6]; 5 mg/kg i.v., 2 hours after the injection): 75%
- increase in coronary flow rate, maximum effect (dogs [6]; 5 mg/kg i.v., after 1 hour): 200%
- increase in maximum intraventricular pressure (dogs [6]; 5 mg/kg i.v., for 1 hour): 56%
- increase in the differential arterial pressure (dogs [6]; 5 mg/kg i.v., for 1 hour): 40%
- increase in ratio dp/dt (dogs [6]; 5 mg/kg i.v., for more than 1 hour): 180%
- tachycardia (dogs [6]; 5 mg/kg i.v., increase): 40%
- effect on arterial pressure (summary) (dogs [6]; at a higher dose): at a higher dose, it is hypotensive
- tachycardiac properties (summary) (dogs [6]; at low doses): possesses tachycardiac properties at low doses
- cardiac work and coronary irrigation (summary) (dogs [6]; summary): increases the cardiac work and, in parallel fashion, it increases the coronary irrigation
- duration of increase in vertebral flow rate [7, 15]: more than one hour
- flow rate of the femoral artery [7, 15]: only increased greatly during the injection
- increase in flow rate of the vertebral artery [7, 15]: 87%
- increase in vertebral flow rate ([7]; first test, end of perfusion): 14%
- increase in vertebral flow rate ([7]; first test, start of perfusion): 90%
- effect of additional injections on the flow rate ([7]; first test, additional 0.5 and 5 mg/kg): no effect on the flow rate
- effect of subsequent injections on the flow rate ([7]; second test, subsequent 1 and 2 mg/kg): no effect on the flow rate
- vasodilating action (summary) ([7]; summary): can dilate either the vertebral artery or the femoral artery or both
- femoral flow rate ([7]; third test, 0.5, 1, 2 and 4 mg/kg i.v. without stopping): increased very much by the first injection, decreases during the subsequent injections
- effect of the stimulation of the peripheral vagus (adrenergic receptors [8]; dogs): does not alter
- effects of the injection of acetylcholine (adrenergic receptors [8]; dogs): does not alter
- effects of the injection of isoprenalin (adrenergic receptors [8]; dogs): does not alter
- α-lytic action (summary) (adrenergic receptors [8]; summary): acts as an α-lytic product
- increase in flow rate (vertebral artery; 10 mg/kg): 37%
- increase in flow rate (vertebral artery; 20 mg/kg): 27%
- effect on vertebral flow rate (vertebral artery; doses less than 1 mg/kg): no effect

Compound: c1cnc(N2CCN(CC3COc4ccccc4O3)CC2)nc1 (stereo not drawn) [Example 8, 1-[2-(1,4-Benzodioxanyl)-methyl]-4-(2-pyrimidinyl)-piperazine dihydrochloride]
- hypertensive effect of adrenalin (adrenergic receptors [9]): the hypertensive effect of adrenalin is reversed, and this manifests itself in an α-blocking action
- decrease in the vertebral flow rate (dogs [10]): 19%
- effect on the mesenteric flow rate (dogs [10]): practically no effect
- increase in the differential arterial pressure (dogs [10]): 50%
- femoral vasodilating effect (dogs [10]; increase): 19%
- tachycardia (dogs [10]; increase): 19%
- passage into the general circulation ([11]; 10 mg/kg): passes into the general circulation
- rise in femoral flow rate ([11]; 1 to 10 mg/kg, for 30 minutes): 200%
- rise in vertebral flow rate ([11]; 1 to 10 mg/kg, for 30 minutes): 60%
- flow rate of the femoral artery ([11]; doses less than 100 μg/kg): does not alter
- flow rate of the vertebral artery ([11]; doses less than 100 μg/kg): does not alter

Compound: COc1cc(OC)c(C(=O)CN2CCN(CC3COc4ccccc4O3)CC2)c(OC)c1 (stereo not drawn) [Example 13, 1-[2-(1,4-Benzodioxanyl)-methyl]-4-(2,4,6-trimethoxyphenacyl)-piperazine dihydrochloride]
- LD50 [12]: 58 mg/kg
- Effect on the amines and reflexes: DMPP (DMPP): effect reversed
- Effect on the amines and reflexes: adrenalin (adrenalin): reversal
- dose from which the hypertensive effect of adrenalin is reduced (adrenergic receptors [13]): ≥ 0.1 mg/kg
- dose from which the hypotensive effect appears (adrenergic receptors [13]; average of three different experiments): ≥ 0.2 mg/kg
- Effect on the amines and reflexes: acetylcholine (acetylcholine): no change
- Effect on the amines and reflexes: stimulation of the peripheral vagus (peripheral vagus): not changed
- Effect on the amines and reflexes: stimulation of the central vagus (central vagus): slightly reduced

Compound: OCCN1CCN(CC2COc3ccccc3O2)CC1 (stereo not drawn) [Example 1, 1-[2-(1,4-Benzodioxanyl)-methyl]-4-(2-hydroxyethyl)-piperazine dihydrochloride]
- α-blocking activity (adrenergic receptors [14]): α-blocking when administered parenterally
